Consider 14 compounds from patent publication US20110182850A1, “ORGANIC COMPOUNDS AND THEIR USES” (priority 2009, published 2011).

As usually defined, the IC50 is the concentration that inhibits the measured activity by half.

T1 sequence (P26664 1658-1711): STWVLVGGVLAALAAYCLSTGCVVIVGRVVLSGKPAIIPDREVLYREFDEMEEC
T1 sequence (P26664 1027-1657): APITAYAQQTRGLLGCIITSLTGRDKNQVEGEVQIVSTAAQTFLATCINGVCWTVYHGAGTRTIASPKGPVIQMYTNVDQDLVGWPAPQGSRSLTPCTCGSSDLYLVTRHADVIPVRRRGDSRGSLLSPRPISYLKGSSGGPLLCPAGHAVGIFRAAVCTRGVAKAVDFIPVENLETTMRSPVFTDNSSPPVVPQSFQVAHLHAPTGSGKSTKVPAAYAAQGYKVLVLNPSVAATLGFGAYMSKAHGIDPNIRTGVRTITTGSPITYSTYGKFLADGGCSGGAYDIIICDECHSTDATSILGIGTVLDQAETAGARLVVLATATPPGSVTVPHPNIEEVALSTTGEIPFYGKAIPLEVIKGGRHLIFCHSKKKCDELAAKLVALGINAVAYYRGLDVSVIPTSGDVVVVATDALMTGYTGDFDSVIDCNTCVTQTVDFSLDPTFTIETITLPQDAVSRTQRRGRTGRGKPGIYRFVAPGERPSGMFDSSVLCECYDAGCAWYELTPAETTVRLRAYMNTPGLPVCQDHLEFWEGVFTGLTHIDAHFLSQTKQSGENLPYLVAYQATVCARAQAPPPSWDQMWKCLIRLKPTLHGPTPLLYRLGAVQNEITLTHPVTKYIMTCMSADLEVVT

One data set concerns the target T1, HCV NS3-4A serine protease (full-length NS3-4A protein, genotype 1a, strain HCV-1) (Hepatitis C virus genotype 1a, UniProt P26664).
T1 construct: using the full-length NS3-4A protein (genotype 1a, strain HCV-1)
Put plainly: HCV NS3-4A protease assay. It is filed as biochemical. The note with it: Protease IC50. The procedure:
The inhibitory activity of certain compounds of Table A against HCV NS3-4A serine protease is determined in a homogenous assay using the full-length NS3-4A protein (genotype 1a, strain HCV-1) and a commercially available internally-quenched fluorogenic peptide substrate as described by Taliani, M., et al. 1996 Anal. Biochem. 240:60-67, which is incorporated by reference in its entirety.
The compound `CC(C)(C)[C@H](NC(=O)[C@@H]1CCCCN1CCF)C(=O)N[C@H](C(=O)N1C[C@]2(C[C@H]1C(=O)NC1(C(=O)NS(=O)(=O)C3CC3)CC=CC1)C(C)(C)C21CCC1)C(C)(C)C` [Compound 24, (5R,8S)-N-{1-[(cyclopropylsulfonyl)carba-moyl]cyclopent-3-en-1-yl}-7-[(2S)-2-{[(2S)-2-({[(2S)-1-(2-fluoroethyl)piperidin-2-yl]carbonyl}amino)-3,3-dimethylbutanoyl]amino}-3,3-dimethylbutanoyl]-10,10-dimethyl-7-azadispiro[3.0.4.1]decane-8-carboxamide] had an IC50 of 5250 nM.
Compound `C=C[C@@H]1C[C@]1(NC(=O)[C@@H]1C[C@@]2(CN1C(=O)[C@@H](NC(=O)[C@@H](NC(=O)[C@H]1CCCN1C(C)C)C(C)(C)C)C(C)(C)C)C(C)(C)C21CCC1)C(=O)NS(=O)(=O)C1CC1` [Compound 140, (5R,8S)-N-{(1R,2S)-1-[(cyclopropylsulfonyl)carba-moyl]-2-vinylcyclopropyl}-7-[(2S)-2-{[(2S)-2-({[(2R)-1-isopropylpyrrolidin-2-yl]carbonyl}amino)-3,3-dimethylbutanoyl]amino}-3,3-dimethylbutanoyl]-10,10-dimethyl-7-azadispiro[3.0.4.1]decane-8-carboxamide] showed an IC50 of 1.5 nM.
The same measure, in the same setting: next, `C=C[C@@H]1C[C@]1(NC(=O)[C@@H]1C[C@@]2(CN1C(=O)[C@@H](NC(=O)[C@@H](NC(=O)C1CN(C(C)C)C1)C(C)(C)C)C(C)(C)C)C(C)(C)C21CCC1)C(=O)NS(=O)(=O)C1CC1` [Compound 139, (5R,8S)-N-{(1R,2S)-1-[(cyclopropylsulfonyl)carba-moyl]-2-vinylcyclopropyl}-7-[(2S)-2-{[(2S)-2-{[(1-isopropylazetidin-3-yl)carbonyl]amino}-3,3-dimethylbutanoyl]amino}-3,3-dimethylbutanoyl]-10,10-dimethyl-7-azadispiro[3.0.4.1]decane-8-carboxamide]: 15 nM; `C=C[C@@H]1C[C@]1(NC(=O)[C@@H]1C[C@@]2(CN1C(=O)[C@@H](NC(=O)[C@@H](N1CCCC1=O)C(C)(C)C)C(C)(C)C)C(C)(C)C21CCC1)C(=O)NS(=O)(=O)C1CC1` [Compound 35, (5R,8S)-N-{(1R,2S)-1-[(cyclopropylsulfonyl)carba-moyl]-2-vinylcyclopropyl}-7-[(2S)-2-{[(2S)-3,3-dimethyl-2-(2-oxopyrrolidin-1-yl)butanoyl]amino}-3,3-dimethylbutanoyl]-10,10-dimethyl-7-azadispiro[3.0.4.1]decane-8-carboxamide]: 9 nM; `C=C[C@@H]1C[C@]1(NC(=O)[C@@H]1C[C@@]2(CN1C(=O)[C@@H](NC(=O)[C@@H](NC(=O)c1cocn1)C1CCCCC1)C(C)(C)C)C(C)(C)C21CCC1)C(=O)NS(=O)(=O)C1CC1` [Compound 112, (5R,8S)-7-[(2S)-2-({(2S)-2-cyclohexyl-2-[(1,3-oxazol-4-ylcarbonyl)amino]acetyl}amino)-3,3-dimethylbutanoyl]-N-{(1R,2S)-1-[(cyclopropylsulfonyl)carba-moyl]-2-vinylcyclopropyl}-10,10-dimethyl-7-azadispiro[3.0.4.1]decane-8-carboxamide]: 1.5 nM.
Regarding `C=C[C@@H]1C[C@]1(NC(=O)[C@@H]1C[C@@]2(CN1C(=O)[C@@H](NC(=O)[C@@H](NC(=O)[C@@H]1CCCCN1C(C)C)C1CCCCC1)C(C)(C)C)C(C)(C)C21CCC1)C(=O)NS(=O)(=O)C(F)(F)F` [Compound 78, (5R,8S)-7-[(2S)-2-{[(2S)-2-cyclohexyl-2-({[(2S)-1-isopropylpiperidin-2-yl]carbonyl}amino)acetyl]amino}-3,3-dimethylbutanoyl]-10,10-dimethyl-N-[(1R,2S)-1-{[(trifluoromethyl)sulfonyl]carbamoyl}-2-vinylcyclopropyl]-7-azadispiro[3.0.4.1]decane-8-carboxamide], the half-maximal inhibitory concentration (IC50) was 2.5 nM.
Same read-out and setting: next, `CCCC(NC(=O)[C@@H]1C[C@@]2(CN1C(=O)C(NC(=O)[C@@H](NC(=O)C(C)(C)N1CCCC1)C1CCCCC1)C(C)(C)C)C(C)(C)C21CCC1)C(=O)NS(=O)(=O)C1CC1` (stereo partly drawn) [Compound 2, (5R,8S)-7-[2-({(2S)-2-cyclohexyl-2-[(2-methyl-2-pyrrolidin-1-ylpropanoyl)amino]acetyl}amino)-3,3-dimethylbutanoyl]-N-{1-[(cyclopropylsulfonyl)carba-moyl]butyl}-10,10-dimethyl-7-azadispiro[3.0.4.1]decane-8-carboxamide]: 2250 nM; `C=C[C@H]1C[C@@]1(NC(=O)[C@@H]1C[C@@]2(CN1C(=O)[C@@H](NC(=O)[C@@H](NC(=O)C(C)(C)N1CCOCC1)C1CCCCC1)C(C)(C)C)C(C)(C)C21CCC1)C(=O)NS(=O)(=O)C1CC1` [Compound 101, (5R,8S)-7-[(2S)-2-({cyclohexyl[(2-methyl-2-morpholin-4-ylpropanoyl)amino]acetyl}amino)-3,3-dimethylbutanoyl]-N-{(1R,2S)-1-[(cyclopropylsulfonyl)carba-moyl]-2-vinylcyclopropyl}-10,10-dimethyl-7-azadispiro[3.0.4.1]decane-8-carboxamide]: 1 nM; `C=C[C@@H]1C[C@]1(NC(=O)[C@@H]1C[C@@]2(CN1C(=O)[C@@H](NC(=O)[C@@H]1CCCCCCCN3CCCC[C@H]3C(=O)N1)C(C)(C)C)C(C)(C)C21CCC1)C(=O)NS(=O)(=O)C1CC1` [Compound 38, (5R,8S)-N-{(1R,2S)-1-[(cyclopropylsulfonyl)carba-moyl]-2-vinylcyclopropyl}-7-[(2S)-3,3-dimethyl-2-({[(3S,15aS)-1-oxotetradecahydro-2H-pyrido[1,2-a][1,4]diazacyclododecin-3-yl]carbonyl}amino)butanoyl]-10,10-dimethyl-7-azadispiro[3.0.4.1]decane-8-carboxamide]: 8 nM.

Still in this data set, the particulars now being: read-out: Protease IC50.
For the compound `C=C[C@@H]1C[C@]1(NC(=O)[C@@H]1C[C@@]2(CN1C(=O)[C@@H](NC(=O)[C@@H](NS(=O)(=O)c1c(C)noc1C)C(C)(C)C)C(C)(C)C)C(C)(C)C21CCC1)C(=O)NS(=O)(=O)C1CC1` [Compound 51, (5R,8S)-N-{(1R,2S)-1-[(cyclopropylsulfonyl)carba-moyl]-2-vinylcyclopropyl}-7-[(2S)-2-{[(2S)-2-{[(3,5-dimethylisoxazol-4-yl)sulfonyl]amino}-3,3-dimethylbutanoyl]amino}-3,3-dimethylbutanoyl]-10,10-dimethyl-7-azadispiro[3.0.4.1]decane-8-carboxamide], the IC50 turned out to be 250 nM.
On to “(5R,8S)-N-{(1R,2S)-1- [(cyclopropylsulfonyl)carba- moyl]-2-vinylcyclopropyl}-7- [(2S)-2-({(2S)-3,3-dimethyl- 2-[(piperidin-1- ylcarbonyl)amino]butanoyl} amino)-3,3-dimethylbutanoyl]- 10,10-dimethyl-7- azadispiro[3.0.4.1]decane-8- carboxamide [Compound 57]”, for which the IC50 was 25 nM.
“(5R,8S)-7-[(2S)-2-{[{[(5- chloro-1H-indol-2- yl)carbonyl]amino}(cyclohex- yl)acetyl]amino}-3,3- dimethylbutanoyl]-N- {(1R,2S)-1- [(cyclopropylsulfonyl)carba- moyl]-2-vinylcyclopropyl}- 10,10-dimethyl-7- azadispiro[3.0.4.1]decane-8- carboxamide [Compound 129]”: the 50% inhibitory concentration (IC50) worked out at 15 nM.
On to `C=C[C@@H]1C[C@]1(NC(=O)[C@@H]1C[C@@]2(CN1C(=O)[C@@H](NC(=O)c1ccc3cnccc3n1)C(C)(C)C)C(C)(C)C21CCC1)C(=O)NS(=O)(=O)C1CC1` [Compound 11, (5R,8S)-N-{(1R,2S)-1-[(cyclopropylsulfonyl)carba-moyl]-2-vinylcyclopropyl}-7-{(2S)-3,3-dimethyl-2-[(1,6-naphthyridin-2-ylcarbonyl)amino]butanoyl}-10,10-dimethyl-7-azadispiro[3.0.4.1]decane-8-carboxamide], for which the IC50 came to 200 nM.

Tested on in a further data set: not listed separately
The experiment in a line: Measurement of thermodynamic solubility. The class given is physicochemical. The note with it: pH 1. As to the method: Thermodynamic solubility for the compounds of the invention listed in Table C is measured by a published literature procedure, e.g., Liping Zhou, et al., J. Pharm. Sci (2007) 96(11): 3052-3071.
The DMSO stocks of test compounds previously dissolved in 25 μL of DMSO (˜10 mM) in mini-prep vial (MPV: Whatman, with PVDF filter and 0.45 μm pore size) chamber were evaporated via a GeneVac HT-4X evaporator for approximately 1 hour, at the guard temperature of 30° C. An aliquot of 250 μL buffer solution (pH 1.0 or 6.8) was added into each MPV chamber containing powders reconstituted from DMSO stock solutions. The MPV filter plungers were pushed down into the chamber until the membrane of the filter plunger slightly touched the surface of the buffer to promote equilibrium between the two compartments and to minimize the adsorption due to non-specific binding of samples during the subsequent 24-hr incubation (at 600 RPM at room temperature). Immediately after the 24-hr incubation, the plungers were further pushed down to the bottom of the chambers. More solution was pushed through the membrane and entered the plunger compartment. The filter/chamber assemblies were then put on a shaker for another 30 minutes at 600 RPM. Afterwards, filtrates were further diluted (1:10) with 50/50 acetonitrile/water solvent followed by a thorough mixing process. Both plates with diluted and undiluted filtrates were analyzed by HPLC and quantified against the four-point standard dilution curve of the same test compound (5 μM, 35 μM, 65 μM and 100 μM, respectively). In the current study, solubility reflects the average of triplicate samples tested at each pH.
As for “(5R,8S)-7-[(2S)-2-{[(2S)-2-cyclohexyl-2-({[(2S)-1-isopropylpiperidin-2-yl]carbonyl}amino)acetyl]amino}-3,3-dimethylbutanoyl]-N-{(1R,2S)-1-[(cyclopentylsulfonyl)carbamoyl]-2-vinylcyclopropyl}-10,10-dimethyl-7-azadispiro[3.0.4.1]decane-8-carboxamide [Compound 80]”, the solubility in water result is reported as “at least 100 micromolar”.

The data set is the same for the next values; noted with them: pH 6.8.
With “(5R,8S)-7-[(2S)-2-{[(2S)-2-cyclohexyl-2-({[(2S)-1-isopropylpiperidin-2-yl]carbonyl}amino)acetyl]amino}-3,3-dimethylbutanoyl]-N-{(1R,2S)-1-[(cyclopentylsulfonyl)carbamoyl]-2-vinylcyclopropyl}-10,10-dimethyl-7-azadispiro[3.0.4.1]decane-8-carboxamide [Compound 80]”, the solubility in water result is “at least 30 micromolar”.
